The values that follow come from ChEMBL document CHEMBL1938317, “Structure-based de novo design and biochemical evaluation of novel BRAF kinase inhibitors” (Bioorg Med Chem Lett, 2012).

The target of this assay is Serine/threonine-protein kinase B-raf (Homo sapiens, UniProt P15056).

Structures are written as SMILES.

Serine/threonine-protein kinase B-raf, sequence (P15056 whole entry): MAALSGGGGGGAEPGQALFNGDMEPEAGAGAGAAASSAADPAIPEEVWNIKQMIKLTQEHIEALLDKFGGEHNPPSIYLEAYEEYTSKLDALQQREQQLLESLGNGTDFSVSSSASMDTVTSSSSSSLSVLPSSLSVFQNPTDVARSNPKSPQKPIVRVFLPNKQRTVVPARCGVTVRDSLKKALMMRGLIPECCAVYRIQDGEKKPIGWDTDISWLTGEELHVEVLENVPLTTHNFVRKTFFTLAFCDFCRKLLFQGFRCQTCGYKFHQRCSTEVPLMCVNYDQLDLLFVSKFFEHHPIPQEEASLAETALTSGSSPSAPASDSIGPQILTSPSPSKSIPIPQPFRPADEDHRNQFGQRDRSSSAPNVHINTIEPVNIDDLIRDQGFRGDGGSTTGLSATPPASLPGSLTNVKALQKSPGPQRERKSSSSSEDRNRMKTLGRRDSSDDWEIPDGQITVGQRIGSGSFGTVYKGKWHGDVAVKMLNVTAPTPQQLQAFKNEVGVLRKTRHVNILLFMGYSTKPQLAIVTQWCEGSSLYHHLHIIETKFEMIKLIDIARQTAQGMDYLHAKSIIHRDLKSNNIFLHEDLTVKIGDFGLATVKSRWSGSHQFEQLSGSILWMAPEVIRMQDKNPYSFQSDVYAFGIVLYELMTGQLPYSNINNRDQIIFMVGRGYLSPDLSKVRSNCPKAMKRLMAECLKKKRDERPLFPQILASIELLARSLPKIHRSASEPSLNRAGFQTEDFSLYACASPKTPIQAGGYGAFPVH
Description: Inhibition of BRAF by high-throughput assay

`O=C(O)c1ccc(Nc2ncnc3nc[nH]c23)cc1` had a Kd of 9.4 µM. For `Nc1nc(Nc2cccc(O)c2)c2[nH]cnc2n1` the value was 5.8 µM; for `Nc1nc(Nc2cccc(Br)c2)c2[nH]cnc2n1`, 2.2 µM. `CCC(=O)c1cccc(Nc2nc(N)nc3nc[nH]c23)c1` gave a Kd of 2.8 µM. Turning to `COc1ccc(Nc2nc(N)nc3[nH]cnc23)cc1OC`, the affinity, expressed as Kd, was 5.1 µM.

`Nc1nc(Nc2cccc(F)c2)c2[nH]cnc2n1` registered a Kd of 4.8 µM. On to `Nc1nc(Nc2ccc(F)c(Cl)c2)c2nc[nH]c2n1`, for which the Kd amounted to 3.2 µM. The value for `COc1cc(Nc2nc(N)nc3nc[nH]c23)cc(OC)c1OC` was 4.1 µM; that for `Nc1nc(Nc2ccc(Cl)c(Cl)c2)c2nc[nH]c2n1` was 3.6 µM. For `Nc1nc(Nc2cccc(Cl)c2)c2nc[nH]c2n1` the value was 3 µM; for `Nc1nc(Nc2cccc(C(F)(F)F)c2)c2[nH]cnc2n1`, 1.7 µM. Consider `c1nc2c(Nc3ccc4c(c3)OCCO4)nc(Nc3ccc4c(c3)OCCO4)nc2[nH]1`, for which the dissociation constant Kd was 5.2 µM. Consider `COc1cc(Nc2nc(N)nc3[nH]cnc23)cc(OC)c1`, for which binding was put at a Kd of 3.1 µM. Compared with the last compound, the Kd is about 1.7-fold lower. Consider `Nc1nc(Nc2ccccc2O)c2[nH]cnc2n1`, for which the affinity, expressed as Kd, was 2 µM. This Kd is about 1.6-fold lower than that of the compound before. `CC(=O)Nc1ccc(Nc2ncnc3nc[nH]c23)cc1` came in with a Kd of 0.79 µM. Regarding `Cc1ccc(Nc2nncc3c(-c4ccc(O)cc4)cccc23)cc1`, binding was put at a Kd of 4.7 µM. `NC(=O)COc1ccc(Nc2nncc3c(-c4ccc(O)cc4)cccc23)cc1` had a Kd of 2.5 µM. Against the preceding compound, the Kd is about 1.9-fold lower. Take `COc1ccc(Nc2nncc3c(-c4ccc(O)cc4)cccc23)cc1`: binding was characterised by a dissociation constant (Kd) of 3.7 µM. `Oc1ccc(-c2cccc3c(Nc4cccc(O)c4)nncc23)cc1`: the equilibrium dissociation constant (Kd) was found to be 5.1 µM. In turn, `NS(=O)(=O)c1ccc(Nc2nncc3c(-c4ccc(O)cc4)cccc23)cc1` returned a dissociation constant (Kd) of 4.7 µM. Regarding `NC(=O)Cc1ccc(Nc2nncc3c(-c4ccc(O)cc4)cccc23)cc1`, binding was put at a Kd of 8 µM. The compound `CN(C)C(=O)Cc1ccc(-c2cccc3c(Nc4cccc(O)c4)nncc23)cc1` showed a Kd of 9.6 µM.
